Test results as given in patent publication US8026231B2, “Aminothiolester compounds, pharmaceutical and cosmetic compositions containing same and uses thereof” (CNRS, priority 2000, dated 2011).

What was measured:
BAF3-b0 cells = assay: Apoptosis induction (DNA fragmentation) in BAF3-b0 cells, 24 h; type: cell-based, mouse
Method: (§1) The BAF3-bcl2 cells correspond to BAF3 cells (mouse lymphocyte cells) tranfected with the bcl2 gene. Among these cells, four lines known as H16, G18, B14 and G21 overexpress the bcl2 gene.
Hereinbelow, the cells known as BAF3-b0 correspond to BAF3 cells not transfected with the bcl2 gene.
(§2) Whereas the BAF3-b0 cells undergo apoptosis (more than 80% of the cells) in the absence of interleukin 3 (IL3) in 16 hours [according to Collins, M. K. L., Marvel, J., Malde, P. & Lopez-Rivas, A., J. Exp. Med. 176, 1043-1051, (1992)], the BAF3-bcl2 cells show no sign of apoptosis in the absence of IL3. They are thus apoptosis-resistant.
(§3) The procedure which was used is as follows: • The BAF3-b0 or BAF3-bcl2 cells, cultured in the presence of IL3, were labelled by a method adapted from that disclosed in Wright, S. et al., J. of Cell. Biochem. 48, 344-355, (1992).
(§4) 10^5 cells/ml were incubated with 4.62 KBq.ml^−1 [^3H]-thymidine for 40 hours at 37° C. After two washes with culture medium, 2.5×10^6 cells were cultured in the presence of the test compound.
(§5) After incubating for 24 hours, these cells were recovered by centrifugation at 400×g for 5 minutes and washed 3 times with PBS buffer. The cells recovered in the pellet were lysed in 2 ml of 0.1% Triton X-100, 20 mM EDTA, 5 mM Tris pH 8 and centrifuged at 30 000×g at 4° C. for 30 minutes.
(§6) The supernatants were recovered and the pellets dissolved in 0.3 ml of 0.5N NaOH.
(§7) Aliquots of the culture medium (1 ml), of the supernatant (0.3 ml) and of the dissolved pellet (0.1 ml) were assayed in a scintillation counter.
(§8) The percentage of DNA fragments is calculated in the following way:
(§9) The percentage of fragmentation of the DNA is a direct measure of the apoptosis which the cells have undergone.

L1210T cells = assay: Growth of L1210T cells (L1210 bearing human ALDH1 cDNA); type: cell-based, mouse; details: 50% inhibition of growth
Method: The cells used correspond to various cell lines: human lung normal embryonic fibroblasts (MRC5), mouse melanoma cells (B16), mouse lymphocytic leukaemia cells (L1210) and L1210T cells obtained by infecting L1210 cells with a retroviral vector bearing human ALDH1 cDNA.
The procedure used for the tests on the L1210 cells is as follows: • 10^5 cells are incubated in the various wells of a microplate in 1 ml of culture medium. After incubating for 4 hours, the test compounds are added to the wells containing the L1210 cells.
For the L1210 cells, the growth is measured by counting the viable cells in the presence of 0.1% Trypan blue.
The IC50 concentration is the concentration corresponding to a 50% inhibition of growth of the cells.

BAF3-bcl2 G21 cells = assay: Apoptosis induction (DNA fragmentation) in BAF3-bcl2 clone G21, 24 h; type: cell-based, mouse
Method: as §1, §2, §3, §4, §5, §6, §7, §8, §9

BAF3-bcl2 B14 cells = assay: Apoptosis induction (DNA fragmentation) in BAF3-bcl2 clone B14, 24 h; type: cell-based, mouse
Method: as §1, §2, §3, §4, §5, §6, §7, §8, §9

ALDH1 = assay: Effect on the activity of ALDH1 after preincubation; type: biochemical, baker's yeast; details: 400 μM
Method: The procedure used is given below: 260 mU of ALDH from baker's yeast are preincubated at 37 or 0° C. in a mixture of 1 mM EDTA, 100 mM KCl, in 60 mM of sodium phosphate buffer pH 6 in a final volume of 200 μl.
To each tube containing the 200 μl of mixture, the test compound is added to a concentration of 400 μM, with the exception of a control series which contains no test compound.
The incubation carried out at 0° C. or at 37° C. is stopped by adding 100 μg of BSA (bovine serum albumin) and acetone at −20° C. to a final concentration of 80% in order to precipitate the proteins (ALDH and BSA). The tubes are left at −20° C. for 1 hour and then centrifuged at 10 000 rpm for 10 minutes and washed with 80% acetone. […]
The reaction is started by adding 2 mM of propanal and the optical density (OD) is measured at 340 nm at T=0 and at T=5, 10, 20 and 30 minutes.
The activity of the enzyme is measured by the variation in optical density Δ OD per minute (Quash G. et al., Enzymology and molecular biology of carbonyl metabolism, Weiner et al. eds., Kluwer Academic/Plenum Publishers, New York, 97-106).
The percentage activity (A %) of the ALDH1 enzyme obtained at different preincubation times with the compound of Example 1 at 0° C. […] (represented by Δ) is measured as a function of the time t (expressed in minutes).

R7 cells = assay: Growth of R7 cells which overexpress the MDR gene; type: cell-based; details: increasing concentrations, 72 h, FIGS. 7 and 8
Method: 10^5 cells were incubated in the various wells of a microplate in 1 ml of culture medium. These are R7 cells, on the one hand, and K562 cells, on the other hand.
After incubating for 4 hours, the test compound (compound of Example 1 according to the invention, on the one hand, and daunorubicin, on the other hand) was added to the wells containing the cells.
After 72 hours, the cells were collected at different times.
The growth of the cells was measured by counting the viable cells in the presence of 0.1% Trypan blue.
FIGS. 7 and 8 respectively represent the percentage inhibition (I %) by daunorubicin and the compound of Example 1 on the growth of the R7 and K562 cells, obtained at increasing concentrations C. The results obtained with the K562 cells are symbolized by ♦ and those obtained with the R7 cells are symbolized by ▴.

## CSC(=O)C#CC(C)(C)N(C)C [Example 1, S-methyl 4-dimethyl-amino-4-methyl-2-pentynethioate]
BAF3-b0 cells; b0, 1 μM
  DNA fragmentation (%): 5.0%
BAF3-b0 cells; b0, 2 μM
  DNA fragmentation (%): 10.6%
BAF3-b0 cells; b0, 4 μM
  DNA fragmentation (%): 46.4%
BAF3-b0 cells; b0, 8 μM
  DNA fragmentation (%): 71.1%
L1210T cells
  IC50: 1.6 µM
BAF3-bcl2 G21 cells; G21, 1 μM
  DNA fragmentation (%): 0%
BAF3-bcl2 G21 cells; G21, 2 μM
  DNA fragmentation (%): 5.8%
BAF3-bcl2 G21 cells; G21, 4 μM
  DNA fragmentation (%): 29.3%
BAF3-bcl2 G21 cells; G21, 8 μM
  DNA fragmentation (%): 71.8%
BAF3-bcl2 B14 cells; B14, 1 μM
  DNA fragmentation (%): 0%
BAF3-bcl2 B14 cells; B14, 2 μM
  DNA fragmentation (%): 2.0%
BAF3-bcl2 B14 cells; B14, 4 μM
  DNA fragmentation (%): 44.1%
BAF3-bcl2 B14 cells; B14, 8 μM
  DNA fragmentation (%): 90.0%
ALDH1; pre-incubation at 0° C.
  Inhibition of the activity of the ALDH1 enzyme: no effect of inhibition
ALDH1; pre-incubation at 37° C.
  Inhibition of the activity of the ALDH1 enzyme: an effect of inhibition of the activity of the enzyme is observed
R7 cells
  Inhibition of the growth of the R7 cells: very strongly inhibits the growth of the R7 cells
